Here are results for two compounds from patent US12048761B2, “Methods and pharmaceutical compositions for the treatment of retinal capillary non-perfusion” (INSERM (INSTITUT NATIONAL DE LA SANTÉ ET DE LA RECHERCHE …, priority 2015, dated 2024).

“Also recorded” adds a separate entry of the source.

The subject of assay [1] is ROCK. Description: ROCK Activity Immunoblot Kit: phosphorylation of recombinant MYPT1 by RPE/choroid samples of treated GK rats. The format is in vivo, rat. Particulars: GK diabetic rats, 3 intravitreous injections of 20 μM, vs vehicle. (In general: A western blot detects proteins with antibodies after separation by electrophoresis.)
Method: We used a ROCK Activity Immunoblot Kit (Cell Biolabs, San Diego, CA, USA) that utilizes recombinant MYPT1 as a ROCK substrate. ROCK inactivates myosin phosphatase through a specific phosphorylation of myosin phosphatase target subunit 1 (MYPT1) at Thr696, which results in an increase in the phosphorylated content of the 20-kDa myosin light chain. (MLC20) After incubating the substrate (recombinant MYPT1) with RPE/choroid samples, the phosphorylated MYPT1 was detected by western blot analysis using an anti-phospho-MYPT1 (Thr696). In brief, RPE/choroid protein samples were diluted in 1× Kinase buffer. 25 μL (75 μg of proteins) was added in microcentrifuge tubes and the initiation of kinase reaction was performed by adding 50 μL of 1× Kinase/ATP/Substrate Solution. The microcentrifuge tubes were then incubated at 30° C. for 30-60 minutes with gentle agitation. Then the kinase reaction was stopped by adding 25 μL of 4× reducing SDS-PAGE sample buffer. […] Inhibition of ROCK activity was evaluated by western blotting and quantified.
Assay [2] relates to outer retinal barrier (RPE). Description: Blood-retinal barrier breakdown using intravenous injection of 150 KDa FITC-dextran. The format is in vivo, rat. The procedure:
For intravitreous injections, diabetic rats were anesthetized with an intraperitoneal injection of pentobarbital (40 mg/kg Nembutal, Abbot, Saint-Remy sur Avre, France) and pupils were dilated with a topically applied drop of 5% tropicamide (Ciba Vision, Toulouse, France), and locally anesthetized with a drop of 1% tetracaine (Ciba Vision). Three consecutive injections, of Fasudil at a concentration of 20 µM or vehicle were performed, at 48 hours interval under a surgical microscope, using a 30-gauge needle (Microfine: Becton Dickinson, Meylan, France as described previously). Animals were sacrificed 48 hours following the administration of 3 intra-vitreous injections of 20 μM of Fasudil, each injection was 2 days apart. To assess blood retinal barrier breakdown, 200 μl of 150 KDa FITC-dextran at 50 mg/ml in PBS (Sigma) was injected intravenously in the tail of rats treated by Fasudil or vehicle (n=5), 2 hours prior killing. Leakage of FITC-dextran was evaluated by measuring fluorescence within the retina using imageJ software as previously described by others. Cryosections (10 μm) of Fasudil and vehicles injected rats retina were randomly imaged (10 images at 40× magnification per animal) and analysed.

In another assay the test system is RPE cells. Description: Quantitative analysis of RPE cell layer morphology on RPE flat-mounts. The format is in vivo, rat. Particulars: Fasudil vs vehicle. The procedure: For intravitreous injections, diabetic rats were anesthetized with an intraperitoneal injection of pentobarbital (40 mg/kg Nembutal, Abbot, Saint-Remy sur Avre, France) and pupils were dilated with a topically applied drop of 5% tropicamide (Ciba Vision, Toulouse, France), and locally anesthetized with a drop of 1% tetracaine (Ciba Vision). Three consecutive injections, of Fasudil at a concentration of 20 µM or vehicle were performed, at 48 hours interval under a surgical microscope, using a 30-gauge needle (Microfine: Becton Dickinson, Meylan, France as described previously). Animals were sacrificed 48 hours following the administration of 3 intra-vitreous injections of 20 μM of Fasudil, each injection was 2 days apart. To analyse RPE flat-mounts and in order to assess the cell morphology. an ImageJ [32] macro tool was created in Fiji. Briefly, after a first image processing by FFT band pass filtering, images were converted into binary format and masked and then processed to obtain a skeleton image (isolated segments and loops were removed). This image was inverted and the cells segmented and labelled with the “particle analysis” tool in ImageJ, the Regions of Interest (ROI) were delimited using ROI Manager tool. The number of vertices for each cell was measured following detection of triple points (points were three branches are joined together) with the appropriate binary “hit or miss” transformation. For this transformation, the ImageJ plugin “morphology” was used. By removing those points from the skeleton image, the number of individual edges was counted as well as their length. The number of vertices was then verified and manually corrected for errors. Images with more than 5% automatic alignment errors were eliminated from analysis. Following this several morphological parameters were then measured for each cell e.g. area, perimeter, circularity, number of neighbours/vertices/edges of a cell etc. […]

In the next assay the test system is retinal vessels. In words: In vivo imaging of retinal vessels using confocal angiography. Details: species or system rat. Conditions: GK rats, intravitreal fasudil, p<0.05. On the procedure:
For intravitreous injections, diabetic rats were anesthetized with an intraperitoneal injection of pentobarbital (40 mg/kg Nembutal, Abbot, Saint-Remy sur Avre, France) and pupils were dilated with a topically applied drop of 5% tropicamide (Ciba Vision, Toulouse, France), and locally anesthetized with a drop of 1% tetracaine (Ciba Vision). Three consecutive injections, of Fasudil at a concentration of 20 µM or vehicle were performed, at 48 hours interval under a surgical microscope, using a 30-gauge needle (Microfine: Becton Dickinson, Meylan, France as described previously). Animals were sacrificed 48 hours following the administration of 3 intra-vitreous injections of 20 μM of Fasudil, each injection was 2 days apart.

The next assay deals with p-MLC. Description: Western blotting of p-MLC protein level in RPE. It counts as in vivo, rat. Conditions: GK diabetic rats, 3 intravitreous injections of 20 μM, vs vehicle. The procedure:
(§1) For intravitreous injections, diabetic rats were anesthetized with an intraperitoneal injection of pentobarbital (40 mg/kg Nembutal, Abbot, Saint-Remy sur Avre, France) and pupils were dilated with a topically applied drop of 5% tropicamide (Ciba Vision, Toulouse, France), and locally anesthetized with a drop of 1% tetracaine (Ciba Vision). Three consecutive injections, of Fasudil at a concentration of 20 µM or vehicle were performed, at 48 hours interval under a surgical microscope, using a 30-gauge needle (Microfine: Becton Dickinson, Meylan, France as described previously). […] Protein concentration was determined using a (Pierce BCA protein assay kit Thermo Scientific Rockford USA) (20-40 μg) were subjected to SDS-PAGE on Nupage 4-12% Bis-Tris gel electrophoresis, and electroblotted onto nitrocellulose membranes (Optitran BA-S 83 GE Healthcare Life Science Whatman). […] Then, membranes were incubated with the corresponding peroxidase-conjugated F(ab)2 fragment (Santa cruz Biotechnology Inc, Santa Cruz, CA, USA (dilution 1:5000) secondary antibodies. Immunoreactive bands were detected with the ECL Western blotting Detection Reagents Kit (Thermo Scientific Rockford USA). The relative abundance of individual proteins identified was quantified by scanning densitometry. The list of antibodies used for western-blots are provided in Table 2.

The next assay concerns VEGF. Description: VEGF western blot in neural retina and VEGF immunostaining on retinal flatmounts. The format is in vivo, rat. Particulars: GK rats, Fasudil vs vehicle, n=8/group, western blot (VEGF-164, neural retina). On the procedure:
as §1

Another assay concerns ROCK-1. In words: Western blotting of ROCK1 protein level in RPE. The format is in vivo, rat. Conditions: GK diabetic rats, 3 intravitreous injections of 20 μM, vs vehicle injected eyes, n=6.
In assay [3] the test system is retinal capillary network. Description: Quantitative assessment of the retinal microangiopathy: lectin-labelled capillary surface on flat-mounted retina. It counts as in vivo, rat. Particulars: GK rats, n=4 Fasudil and n=5 vehicle, p<0.05. On the procedure:
For intravitreous injections, diabetic rats were anesthetized with an intraperitoneal injection of pentobarbital (40 mg/kg Nembutal, Abbot, Saint-Remy sur Avre, France) and pupils were dilated with a topically applied drop of 5% tropicamide (Ciba Vision, Toulouse, France), and locally anesthetized with a drop of 1% tetracaine (Ciba Vision). Three consecutive injections, of Fasudil at a concentration of 20 µM or vehicle were performed, at 48 hours interval under a surgical microscope, using a 30-gauge needle (Microfine: Becton Dickinson, Meylan, France as described previously). Animals were sacrificed 48 hours following the administration of 3 intra-vitreous injections of 20 μM of Fasudil, each injection was 2 days apart. To quantify the area of large and small blood vessels on flat mounted retina, an ImageJ macro was created in Fiji. Briefly, the local thickness function available with the Fiji plugin for ImageJ software was used to create a map of the blood vessels, from which diameter of the local structures could be evaluated. This map was thresholded to define two binary masks corresponding to the vessels of large diameter (local thickness>threshold) and the vessels of small diameter (local thickness<threshold). The area of those masks was then measured and expressed in terms of the surface area occupied by the small vessels.

The test system of another assay is ROCK1/P-MLC. In words: Immunolocalization of ROCK1 and P-MLC on RPE cell flatmounts. The format is in vivo, rat. Particulars: GK diabetic rats, 3 intravitreous injections of 20 μM.
Assay [4] relates to ROCK. Conditions: cited from earlier work.

Method for ROCK-1: (§2) For intravitreous injections, diabetic rats were anesthetized with an intraperitoneal injection of pentobarbital (40 mg/kg Nembutal, Abbot, Saint-Remy sur Avre, France) and pupils were dilated with a topically applied drop of 5% tropicamide (Ciba Vision, Toulouse, France), and locally anesthetized with a drop of 1% tetracaine (Ciba Vision). Three consecutive injections, of Fasudil at a concentration of 20 M or vehicle were performed, at 48 hours interval under a surgical microscope, using a 30-gauge needle (Microfine: Becton Dickinson, Meylan, France as described previously [29-31]). Animals were sacrificed 48 hours following the administration of 3 intra-vitreous injections of 20 μM of Fasudil, each injection was 2 days apart.
RPE/choroid and neural retina were homogenized in a lysis buffer (50 mM Mops, 50 mM Trisbase, 0.1%, SDS 1 mM EDTA PH 7.7) containing a protease inhibitor cocktail (Roche, France). Protein concentration was determined using a (Pierce BCA protein assay kit Thermo Scientific Rockford USA) (20-40 μg) were subjected to SDS-PAGE on Nupage 4-12% Bis-Tris gel electrophoresis, and electroblotted onto nitrocellulose membranes (Optitran BA-S 83 GE Healthcare Life Science Whatman). Membranes were incubated with primary antibodies.
Method for ROCK1/P-MLC: as §2
For flatmounts, after enucleation, ocular globes were fixed in 4% paraformaldehyde (PFA) for 15 min at room temperature and sectioned at the limbus; anterior segments were discarded. Neural retinas and RPE/choroids were fixed separately for additional 15 min in acetone at −20° C. Specimens were then incubated overnight at 4° C. with primary antibodies diluted in PBS supplemented with 10% foetal calf serum (FCS) and 0.1% Triton X-100. Immunohistochemistry was repeated at least 7 times on 7 different animals for each group.

Turning to `O=S(=O)(c1cccc2cnccc12)N1CCCNCC1` [Fasudil, hexahydro-1-(5-isoquinolylsulfonyl)-1H-1,4-di-azepime], in the assay with ROCK [1], the “phosphorylated MYTP1 in the RPE (ROCK-1 activity)” value is listed as “significant reduction”. Besides, the “RPE barrier on histological sections” value in [2] (GK eyes, Fasudil treated) is “intact RPE barrier”. For the same compound, in [2] (GK eyes, Fasudil vs vehicle, n=5-6, p<0.01), the “vessel leakage (neural retina corrected total fluorescence)” value is reported as “significant reduction in vessel leakage”. Also, in assay [2] (GK rats, 2 hours after intravenous FITC-dextran, qualitative on cryosections), the “passage of 150 KDa FITC-dextran across the RPE barrier” value was “did not cross the RPE barrier”. In the assay on RPE cells (GK retina, p<0.001), the “frequency of normal size RPE cells” value was “increase frequency of normal size cells” and the “frequency of small RPE cells (<200 μm2)” value is reported as “significantly less small cells; also recorded: reduction in the frequency of small cells”. Moreover, the “distribution of RPE cell area” value in the assay on RPE cells (WS (non-diabetic Wistar) retina, ANOVA p=0.17) is “no difference in distribution of cell area”. Also, in the assay with retinal vessels, the “vasodilation of retinal vessels (vascular diameter before and after treatment)” value is recorded as “significant effect of fasudil on retinal vessel diameter; also recorded: significant vasodilation”. Moreover, the “phosphorylated MLC in the RPE” value with p-MLC is given as “significant reduction”. Also, the “VEGF levels in retina” value in the assay with VEGF is “significant decrease”. Moreover, the “total ROCK-1 in the RPE” value in the assay with ROCK-1 is “not significantly decreased”. The “capillary density (% of surface coverage by small vessels)” value in assay [3] was “significantly increased”. Further, the “localization of ROCK1/P-MLC in RPE cells” value in the assay on ROCK1/P-MLC is given as “relocation of ROCK1/P-MLC from the membrane into the cytoplasm”.

For `O=c1[nH]ccc2c(S(=O)(=O)N3CCCNCC3)cccc12` [Hydroxyfasudil], in the assay with ROCK [4], the “affinity to ROCK relative to Fasudil” value was “higher affinity”.
